Reference: article PMC10925993, “6-Aryl-4-cycloamino-1,3,5-triazine-2-amines: synthesis, antileukemic activity, and 3D-QSAR modelling” (RSC Advances, 2024)
Read-outs that look alike come from different tables or passages of the source.

Legend:
[1] = system: Jurkat T cells; assay: Inhibition of Jurkat T cell growth (GI50), MTS assay; type: cell-based; details: Homo sapiens
Procedure: These compounds were selected for further testing to estimate their 50% growth inhibition (GI50) value. Standard antileukemic drugs mercaptopurine, methotrexate and cytarabine were chosen as positive controls.
(§1) An MTS (3-(4,5-dimethylthiazol-2-yl)-5-(3-carboxymethoxyphenyl)-2-(4-sulfophenyl)-2H-tetrazolium inner salt) assay[20] was used to assess the leukemic cell viability. Jurkat T cells (human leukemic T cell, clone E6-1) from American Type Culture Collection (ATCC) were cultured in RPMI-1640 medium (Nacalai Tesque, Japan) supplemented with 10% v/v fetal bovine serum (FBS) (Biosera, France). The cells were maintained at 37 °C in a humidified 5% CO2 incubator (Thermo Fisher, USA). A total of 2 × 10^3 cells per 100 μL cell culture media were seeded into each well of a 96-well plate and incubated for 24 h. Then, tested compounds or reference drugs [6-mercaptopurine (Merck Millipore, Germany), methotrexate (Merck Millipore, Germany) and cytarabine (Merck Millipore, Germany)] were added, followed by incubation for 72 h. After that, a mixture of MTS (Sigma Aldrich, USA) and phenazine methosulfate (PMS) (Nacalai Tesque, Japan) were added to each well, followed by another incubation for 1 h to 4 h at 37 °C. The absorbance in each well was measured at 490 nm using a microplate reader (Tecan NanoQuant Infinite M200 Pro, Austria). The percentage of cell viability was estimated by comparing absorbance in wells with the treated and untreated (vehicle control) cells using the following formula: ODtreated/ODuntreated × 100%. All experiments were performed in triplicate and repeated in three independent experiments. The GI50 values were calculated using sigmoidal concentration-response curves generated by the GraphPad Prism 8 program.[21]

[2] = system: Jurkat T cells; assay: Antiproliferative screening at 10 μM, MTS assay; type: cell-based, human; details: for viability at 10 µM: Homo sapiens, Jurkat T cells, 72 h after treatment, MTS, mean of three independent experiments, read-out: Cell viability (%); for Antiproliferative activity against Jurkat T cells (in words): screening concentration 10 μM, 72 h
Procedure: The Jurkat T cell line was chosen for its reliability as a model for chemotherapeutic studies, particularly in T-cell leukemia.[13]
as §1, with “Jurkat T cells (human leukemic T cell, clone E6-1) from American Type Culture Collection (ATCC) were cultured in RPMI-1640 medium (Nacalai Tesque, Japan) supplemented with 10% v/v fetal bovine serum (FBS) (Biosera, France). The cells were maintained at 37 °C in a humidified 5% CO2 incubator (Thermo Fisher, USA).” left out, “After that, a mixture of MTS (Sigma Aldrich, USA) and phenazine methosulfate (PMS) (Nacalai Tesque, Japan) were added to each well, followed by another incubation for 1 h to 4 h at 37 °C.” left out

[3] = GI50 against Jurkat T cells converted to negative logarithmic scale, read-out: Experimental pGI50 (converted)
[4] = concentration required to inhibit Jurkat T cell growth by 50%, 72 h, MTS, mean of three independent experiments, read-out: GI50 ± SEM

Row | Structure (SMILES) | GI50 [1, 3] | GI50 [1, 4] | melting point | viability at 10 µM [2] | Antiproliferative activity against Jurkat T cells (in words) [2]
1 | Nc1nc(-c2ccc(OC(F)(F)F)cc2)nc(N2CCCCC2)n1 [9{2,12}, 6-[4-(Trifluoromethoxy)phenyl]-4-piperidino-1,3,5-triazine-2-amine] | 10.7 µM | 10.8 ± 0.13 µM | 136 to 137 °C | 12% | effectively inhibited Jurkat T cell growth
2 | Nc1nc(-c2cccc(Oc3ccccc3)c2)nc(N2CCCCC2)n1 [9{2,13}, 4-Piperidino-6-(3-phenoxyphenyl)-1,3,5-triazine-2-amine] | 6.92 µM | 6.88 ± 1.22 µM | 125 to 126 °C | 10% | effectively inhibited Jurkat T cell growth
3 | Nc1nc(-c2cccc(OCc3ccccc3)c2)nc(N2CCCCC2)n1 [9{2,14}, 6-[3-(Benzyloxy)phenyl]-4-piperidino-1,3,5-triazine-2-amine] | 7.76 µM | 7.68 ± 0.11 µM | 157 to 158 °C | 8% | effectively inhibited Jurkat T cell growth
4 | CC1CCN(c2nc(N)nc(-c3ccc(C(F)(F)F)cc3)n2)CC1 [9{3,11}, 6-[4-(Trifluoromethyl)phenyl]-4-(4-methylpiperidino)-1,3,5-triazine-2-amine] | 4.47 µM | 4.51 ± 0.15 µM | 170 to 171 °C | 11% | effectively inhibited Jurkat T cell growth
5 | CC1CCN(c2nc(N)nc(-c3ccc(OC(F)(F)F)cc3)n2)CC1 [9{3,12}, 6-[4-(Trifluoromethoxy)phenyl]-4-(4-methylpiperidino)-1,3,5-triazine-2-amine] | 3.24 µM | 3.23 ± 0.88 µM | 152 to 153 °C | 5% | effectively inhibited Jurkat T cell growth
6 | CC1CCN(c2nc(N)nc(-c3cccs3)n2)CC1 [9{3,18}, 4-(4-Methylpiperidino)-6-(2-thienyl)-1,3,5-triazine-2-amine] | 28.2 µM | 28.2 ± 1.03 µM | 155 to 156 °C | 35% | 
7 | Cc1ccc(-c2nc(N)nc(N3CCN(C)CC3)n2)cc1 [9{4,6}, 6-(4-Methylphenyl)-4-(4-methylpiperazino)-1,3,5-triazine-2-amine] |  |  | 220 to 221 °C | 100% | 
8 | CN1CCN(c2nc(N)nc(-c3ccc(C(C)(C)C)cc3)n2)CC1 [9{4,7}, 6-[4-(tert-Butyl)phenyl]-4-(4-methylpiperazino)-1,3,5-triazine-2-amine] | 21.9 µM | 21.8 ± 1.1 µM |  | 16% | effectively inhibited Jurkat T cell growth
9 | CN1CCN(c2nc(N)nc(-c3ccc(N(C)C)cc3)n2)CC1 [9{4,8}, 6-[4-(N,N-Dimethylamino)phenyl]-4-(4-methylpiperazino)-1,3,5-triazine-2-amine] |  |  | 244 to 245 °C | 99% | 
10 | COc1ccc(-c2nc(N)nc(N3CCN(C)CC3)n2)cc1 [9{4,9}, 6-(4-Methoxyphenyl)-4-(4-methylpiperazino)-1,3,5-triazine-2-amine] |  |  | 196 to 197 °C | 100% | 
11 | CN1CCN(c2nc(N)nc(-c3cccc([N+](=O)[O-])c3)n2)CC1 [9{4,10}, 4-(4-Methylpiperazino)-6-(3-nitrophenyl)-1,3,5-triazine-2-amine] |  |  | 226 to 227 °C | 100% | 
12 | CN1CCN(c2nc(N)nc(-c3ccc(C(F)(F)F)cc3)n2)CC1 [9{4,11}, 6-[4-(Trifluoromethyl)phenyl]-4-(4-methylpiperazino)-1,3,5-triazine-2-amine] |  |  | 194 to 195 °C | 100% | 
13 | CN1CCN(c2nc(N)nc(-c3ccc(OC(F)(F)F)cc3)n2)CC1 [9{4,12}, 6-[4-(Trifluoromethoxy)phenyl]-4-(4-methylpiperazino)-1,3,5-triazine-2-amine] |  |  | 194 to 195 °C | 100% | 
14 | CN1CCN(c2nc(N)nc(-c3cccc(OCc4ccccc4)c3)n2)CC1 [9{4,14}, 6-[3-(Benzyloxy)phenyl]-4-(4-methylpiperazino)-1,3,5-triazine-2-amine] |  |  | 117 to 118 °C | 73% | 
15 | CN1CCN(c2nc(N)nc(-c3ccc(OCc4ccccc4)cc3)n2)CC1 [9{4,15}, 6-[4-(Benzyloxy)phenyl]-4-(4-methylpiperazino)-1,3,5-triazine-2-amine] |  |  | 191 to 192 °C | 74% | 
16 | COc1ccc(-c2nc(N)nc(N3CCN(C)CC3)n2)cc1OC [9{4,16}, 6-(3,4-Dimethoxyphenyl)-4-(4-methylpiperazino)-1,3,5-triazine-2-amine] |  |  | 223 to 224 °C | 100% | 
17 | COc1cc(-c2nc(N)nc(N3CCN(C)CC3)n2)cc(OC)c1OC [9{4,17}, 6-(3,4,5-Trimethoxyphenyl)-4-(4-methylpiperazino)-1,3,5-triazine-2-amine] |  |  | 234 to 235 °C | 100% | 
18 | Nc1nc(-c2ccccc2)nc(N2CCc3ccccc3C2)n1 [9{6,1}] | 1.95 µM | 1.95 ± 0.25 µM |  | 12% | 
19 | Nc1nc(-c2ccc(Cl)cc2)nc(N2CCc3ccccc3C2)n1 [9{6,4}, 6-(4-Chlorophenyl)-4-(3,4-dihydroisoquinolin-2(1H)-yl)-1,3,5-triazine-2-amine] | 3.31 µM | 3.3 ± 0.65 µM | 183 to 184 °C | 2% | 

Continued, in another order:

Row | GI50 [1, 3] | GI50 [1, 4] | melting point | Structure (SMILES) | viability at 10 µM [2] | Antiproliferative activity against Jurkat T cells (in words) [2]
20 |  |  | 201 to 202 °C | CN(C)c1ccc(-c2nc(N)nc(N3CCc4ccccc4C3)n2)cc1 [9{6,8}, 6-[4-(N,N-Dimethylamino)phenyl]-4-(3,4-dihydroisoquinolin-2(1H)-yl)-1,3,5-triazine-2-amine] | 100% | 
21 |  |  | 143 to 144 °C | Nc1nc(-c2ccc(OCc3ccccc3)cc2)nc(N2CCc3ccccc3C2)n1 [9{6,15}, 6-(4-(Benzyloxy)phenyl)-4-(3,4-dihydroisoquinolin-2(1H)-yl)-1,3,5-triazine-2-amine] | 59% | 
22 |  |  | 198 to 199 °C | COc1cc(-c2nc(N)nc(N3CCc4ccccc4C3)n2)cc(OC)c1OC [9{6,17}, 6-(3,4,5-Trimethoxyphenyl)-4-(3,4-dihydroisoquinolin-2(1H)-yl)-1,3,5-triazine-2-amine] | 96% | 
23 |  |  | 170 to 171 °C | Nc1nc(-c2cccs2)nc(N2CCc3ccccc3C2)n1 [9{6,18}, 4-(3,4-Dihydroisoquinolin-2(1H)-yl)-6-(2-thienyl)-1,3,5-triazine-2-amine] | 78% | inactive against Jurkat T cells
24 |  |  | 219 to 220 °C | COc1ccc(-c2nc(N)nc(N3CCc4ccccc43)n2)cc1 [9{7,9}, 6-(4-Methoxyphenyl)-4-(indolin-1-yl)-1,3,5-triazine-2-amine] | 85% | 
25 |  |  | 227 to 228 °C | Nc1nc(-c2ccc(C(F)(F)F)cc2)nc(N2CCc3ccccc32)n1 [9{7,11}, 6-[4-(Trifluoromethyl)phenyl]-4-(indolin-1-yl)-1,3,5-triazine-2-amine] | 53% | 
26 |  |  | 195 to 196 °C | Nc1nc(-c2ccc(OC(F)(F)F)cc2)nc(N2CCc3ccccc32)n1 [9{7,12}, 6-[4-(Trifluoromethoxy)phenyl]-4-(indolin-1-yl)-1,3,5-triazine-2-amine] | 73% | 
27 |  |  | 183 to 184 °C | COc1ccc(-c2nc(N)nc(N3CCc4ccccc43)n2)cc1OC [9{7,16}, 6-(3,4-Dimethoxyphenyl)-4-(indolin-1-yl)-1,3,5-triazine-2-amine] | 67% | 
28 |  | 0.29 ± 0.01 µM |  | Nc1ccn([C@@H]2O[C@H](CO)[C@@H](O)[C@@H]2O)c(=O)n1 [Cytarabine, cytarabine, reference compound] |  | 
29 |  | 11.1 ± 4.89 µM |  | S=c1[nH]cnc2nc[nH]c12 [Mercaptopurine, mercaptopurine, reference compound] |  | 
